Measured values: article PMC4821105 (Pharmacognosy Research, 2016)

Key:
[1] = molecular target: T1, PTP1B (Homo sapiens, UniProt P18031); assay: Protein tyrosine phosphatase 1B inhibitory activity; type: biochemical
T1 sequence (P18031 1-435): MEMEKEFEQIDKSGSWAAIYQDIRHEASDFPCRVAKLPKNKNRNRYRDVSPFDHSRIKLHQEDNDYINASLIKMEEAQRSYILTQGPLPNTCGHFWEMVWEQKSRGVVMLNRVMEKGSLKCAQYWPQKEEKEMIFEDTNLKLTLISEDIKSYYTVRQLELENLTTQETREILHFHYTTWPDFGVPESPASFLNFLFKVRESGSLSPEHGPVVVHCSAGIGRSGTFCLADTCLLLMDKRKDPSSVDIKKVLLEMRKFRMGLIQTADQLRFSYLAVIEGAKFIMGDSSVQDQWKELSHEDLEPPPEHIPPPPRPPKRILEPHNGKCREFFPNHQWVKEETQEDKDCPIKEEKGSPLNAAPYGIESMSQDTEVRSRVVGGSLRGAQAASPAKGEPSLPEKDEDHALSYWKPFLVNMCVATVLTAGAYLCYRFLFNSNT

[2] = molecular target: T2, TCPTP (Homo sapiens, UniProt P17706); assay: T-cell protein tyrosine phosphatase inhibitory activity; type: biochemical
T2 sequence (P17706 1-415): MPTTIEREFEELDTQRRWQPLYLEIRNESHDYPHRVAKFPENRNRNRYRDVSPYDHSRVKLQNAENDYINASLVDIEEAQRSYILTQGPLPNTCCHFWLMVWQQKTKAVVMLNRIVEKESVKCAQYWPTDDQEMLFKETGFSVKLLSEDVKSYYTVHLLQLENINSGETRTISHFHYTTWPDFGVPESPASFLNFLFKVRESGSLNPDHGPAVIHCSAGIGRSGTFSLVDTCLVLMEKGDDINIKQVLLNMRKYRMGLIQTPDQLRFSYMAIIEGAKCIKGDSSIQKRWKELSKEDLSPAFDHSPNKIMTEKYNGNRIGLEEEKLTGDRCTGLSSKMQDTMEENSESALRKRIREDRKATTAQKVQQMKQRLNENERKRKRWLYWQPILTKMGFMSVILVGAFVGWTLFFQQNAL

[3] = molecular target: T1, PTP1B; conditions: previous study of 28 medicinal plants; cited from earlier work

SMILES	IC50 [1]	inhibition at 10 µg/mL ([1]; read-out: PTP1B inhibited activity (%), 10 μg/mL, mean of triplicate)	IC50 [2]	PTP1B (IC50, μg/mL) ([1]; pNPP 2 mM, 37°C, 30 min)	PTP1B IC50 (previous screening of Indonesian herbal medicines) [3]
C=C(C)[C@@H]1CC[C@]2(C(=O)O)CC[C@]3(C)[C@H](CC[C@@H]4[C@@]5(C)CC[C@H](O)C(C)(C)[C@@H]5CC[C@]43C)[C@@H]12 [Compound 1, Betulinic acid]	3.28 µM	98%	5.25 µM	–	–
C[C@H]1[C@H](C)CC[C@]2(C(=O)O)CC[C@]3(C)C(=CC[C@@H]4[C@@]5(C)CC[C@H](O)C(C)(C)[C@@H]5CC[C@]43C)[C@H]12 [Compound 2, ursolic acid]	–	–	6.79 µM	–	–
CCCCCCCCCCCCCCCC(=O)C1=C(O)C(CO)OC1=O (stereo not drawn) [RK-682, reference compound]	–	–	–	2.05 µg/mL	2.05 µg/mL
